Test system: K562-GRE reporter gene
Experiment: K562-GRE reporter gene activity
Format: cell-based
Conditions: 24 h, read-out: K562-GRE Reporter EC50
Procedure: To generate the parental K562-GRE cell line, K562 cells were seeded at 5×10^5 cells/well onto a 6-well plate (brand: Costar, Cat. No: 3516) containing 2 mL of complete medium (RPM1640, 10% FBS, penicillin-streptomycin) and cultured at 37° C. with 5% CO2 for 24 h. The next day, 3 μg of pNL2.2[NLucP/MMTV/Hygro-NANO] (Promega) and 3 μL of PLUS reagent (brand: Invitrogen, Cat. No: 11514-015) were diluted in 150 μL of Opti-MEM (brand: Gibco, Cat. No: 11058021) and incubated at room temperature for 5 min. The pNL2.2[NLucP/MMTV/Hygro-NANO] vector contains MMTV LTR (mouse mammary tumor virus long terminal repeat), which drives transcription of the luciferase reporter gene NanoLuc in response to activation of several nuclear receptors (e.g. glucocorticoid receptor and androgen receptor). After incubation, the diluted DNA solution was mixed with Lipofectamine LTX solution (brand: Invitrogen, Cat. No: 15338-100) (6 μL of Lipofectamine LTX+144 μL of Opti-MEM) in a 1:1 ratio, pre-incubated, and incubated at room temperature for 15 min to form a DNA-Lipofectamine LTX complex. After incubation, 300 μL of the DNA-Lipofectamine complex was added directly to the cell wells. The K562 cells were transfected at 37° C. with 5% CO2 for 24 h. After transfection, the cells were washed with 3 mL of PBS and selectively grown for two weeks with complete growth medium containing 125 μg/mL hygromycin B (brand: Invitrogen, Cat. No: 10687010). “K562-GRE (pNL2.2[NLucP/MMTV/Hygro-NANO])” cells were generated.
After mixing, the cells were cultured in an incubator at 37° C. for 24 h. After 24 h of incubation, an equal volume of 100 μL of Nano-Glo luciferase assay system (brand: Promega, Cat. No: N1120) was added to the cells, the mixture was reacted in a shaker at […] for 10 min, and the chemiluminescence values were detected using the PHERAstar instrument. The antibody binding curves were plotted using the logarithmic value of the antibody concentration as the abscissa and the corresponding chemiluminescence reading as the ordinate, and the EC50 value was calculated by four-parameter fitting (GraphPad Prism9).

With `C[C@]12C=CC(=O)C=C1CC[C@@H]1[C@@H]2[C@@H](O)C[C@@]2(C)[C@H]1C[C@H]1O[C@@H](c3ccc(Cc4cc(N)c5c(c4)CCO5)cc3)O[C@]12C(=O)CO` [Compound 009, (6aR,6bS,7S,8aS,8bS,10R,11aR,12aS,12bS)-10-(4-((7-amino-2,3-dihydrobenzofuran-5-yl)methyl)phenyl)-7-hydroxy-8b-(2-hydroxyacetyl)-6a,8a-dimethyl-6a,6b,7,8,8a,8b,11a,12,12a,12b-decahydro-1H-naphtho[2′,1′:4,5]indeno[1,2-d][1,3]dioxolan-4(2H)-one] as the compound, how does the EC50 read?
The EC50 was 5.76 nM.

From patent US20240307415A1, “STEROID COMPOUND, AND PHARMACEUTICAL COMPOSITION THEREOF AND USE THEREOF” (JIANGSU SIMCERE PHARMACEUTICAL CO., LTD., priority 2021, published 2024)
